Experimental data published in EP0376166A1, “Condensed quinoline system compound and process of preparation thereof” (MECT CORPORATION, priority 1988, dated 1990).
In brackets after ≈: the same amount, converted by molar mass.

Columns and labels:
KB Cell = assay: Inhibition of multiplication (growth) of KB cells, in vitro; type: cell-based, human; settings: concentration for 50% growth inhibition vs control; for IC50: Homo sapiens, 72 h, compound added Day 1, cells counted Day 4, read-out: Conc.(ED50)
Method: KB cells, carcinomatous cell tumors, were transferred to in vitro floatation incubator systems, and added respectively with compounds of Examples 1 to 33. The results of cultivation added with these compounds were compared with the results of the control which was not added with any compound.
Cell used: KB Cell (Originating from human mouth epidermal cancer) Culture medium: Eagles minimal essential medium (MEM) supplemented with 10% calf serum Cultivation: 37°C carbon dioxide gas incubator (5% CO₂)
Day 0: KB cells were diluted in the culture medium to adjust the KB cell density to 2 x 10⁴/ml. Three ml of the cell suspension was inoculated in each of 60 mm plastic dishes. Two dishes per standard dosage were used. Day 1: Test compound was added to the medium so that the final concentrations were set to 100, 30, 10, 3 and 1 µg/ml. Day 4: Cells were scraped off from the dish using trypsin, and the cell number was countered using a Corter counter.
In generally accordance with the stipulations set forth by the National Cancer Institute (NCI), U.S.A., the concentration of compound necessary for exerting 50% growth inhibition (ED₅₀) compared to the control was determined. A compound was judged as effective when ED₅₀ was less than 4 µg/ml.

P-388 = assay: Prolongation of life span in P-388 implanted mice; type: in vivo, CDF mouse; settings: for Ratio of Life Prolongation (%) / response vs control in vivo at 100 mg/kg / response vs control in vivo at 200 mg/kg / response vs control in vivo at 400 mg/kg / response vs control in vivo at 12.5 mg/kg / response vs control in vivo at 25 mg/kg / response vs control in vivo at 50 mg/kg: T/C %, Day 1 and Day 5, P-388 10⁶ cells/mouse i.p.; for response vs control in vivo at 100 mg/kg / response vs control in vivo at 200 mg/kg / response vs control in vivo at 400 mg/kg / response vs control in vivo at 12.5 mg/kg / response vs control in vivo at 25 mg/kg / response vs control in vivo at 50 mg/kg: P388, ip, read-out: Ratio of Life Prolongation (%); for cure: cured mice per group of 6
Method: Animal used: CDF mouse (6 mice/group) Tumor: P-388 Number of implanted cells: 10⁶ cells/mouse Implanted site: i.p. Day of administration: Day 1 and Day 5 Dosage: LD₅₀ or 400 mg/kg/day at the maximum

Molecule | IC50 (KB Cell) [mg/L] | response vs control in vivo at 100 mg/kg (P-388; dosage 100 mg/kg) [%] | response vs control in vivo at 200 mg/kg (P-388; dosage 200 mg/kg) [%] | response vs control in vivo at 12.5 mg/kg (P-388; dosage 12.5 mg/kg) [%] | response vs control in vivo at 25 mg/kg (P-388; dosage 25 mg/kg) [%] | response vs control in vivo at 50 mg/kg (P-388; dosage 50 mg/kg) [%] | other results
6-(4-methanesulfonamide-anilino)-indeno[3,2-b]quinoline [Compound 5] |  |  |  |  |  |  | Conc.(ED50) (KB Cell; compound added Day 1, cells counted Day 4, 4320 min): < 0.3 mg/L; Ratio of Life Prolongation (%) (P-388; dosage 25 mg/kg): 140%; Ratio of Life Prolongation (%) (P-388; dosage 50 mg/kg): 135%; Ratio of Life Prolongation (%) (P-388; dosage 100 mg/kg): 163%; Ratio of Life Prolongation (%) (P-388; dosage 200 mg/kg): 172%; Ratio of Life Prolongation (%) (P-388; dosage 400 mg/kg): 165%
COC(=O)Nc1ccc(Nc2c3c(nc4ccccc24)-c2ccccc2C3)c(OC)c1 [Compound 3] | < 0.3 | 151 | 97 |  |  |  | response vs control in vivo at 400 mg/kg (P-388; dosage 400 mg/kg): 0%
COc1cc(NS(C)(=O)=O)ccc1Nc1c2cccc(C)c2nc2c1sc1ccccc12 [Compound 32, 6-(4-methanesulfonamide-2-methoxyanilino)-10-methylbenzothieno[3,2-b]quinoline] | 1.4 (≈ 3.02 µM) | 137 | 167 |  |  |  | response vs control in vivo at 400 mg/kg (P-388; dosage 400 mg/kg): 228%
COc1cc(NS(C)(=O)=O)ccc1Nc1c2ccccc2nc2c1oc1cccc(C)c12 [Compound 30, 6-(4-methanesulfonamide-2-methoxyanilino)-1-methylbenzofurano[3,2-b]quinoline] | 1.5 (≈ 3.35 µM) | 105 | 108 |  |  |  | response vs control in vivo at 400 mg/kg (P-388; dosage 400 mg/kg): 151%
COc1cc(NS(C)(=O)=O)ccc1Nc1c2cccc(C)c2nc2c1oc1cc(C)ccc12 [Compound 29, 6-(4-methanesulfonamide-2-methoxyanilino)-3,10-dimethylbenzofurano[3,2-b]quinoline] | < 0.3 | 204 | 269 |  |  |  | response vs control in vivo at 400 mg/kg (P-388; dosage 400 mg/kg): 76%; cure (P-388; dosage 100 mg/kg): 1/6; cure (P-388; dosage 200 mg/kg): 1/6
COc1cc(NS(C)(=O)=O)ccc1Nc1c2c(nc3c(C)cccc13)-c1ccccc1C2 [Compound 2] | < 0.3 | 257 | 99 |  |  |  | response vs control in vivo at 400 mg/kg (P-388; dosage 400 mg/kg): 97%; cure (P-388; dosage 100 mg/kg): 1/6
COc1cc(NS(C)(=O)=O)ccc1Nc1c2cccc(C)c2nc2c1oc1ccccc12 [Compound 27, 6-(4-methanesulfonamide-2-methoxyanilino)-10-methylbenzofurano[3,2-b]quinoline] | 0.38 (≈ 0.849 µM) | 230 | 250 |  |  |  | cure (P-388; dosage 200 mg/kg): 1/6
COc1cc(NS(C)(=O)=O)ccc1Nc1c2ccccc2nc2c1[nH]c1ccc(C)cc12 [Compound 13, 6-(4-methanesulfonamide-2-methoxyanilino)-2-methylindolo[3,2-b]quinoline] | < 0.3 |  |  | 189 | 192 | 115 | 
COc1cc(NS(C)(=O)=O)ccc1Nc1c2ccccc2nc2c1sc1cccc(C)c12 [Compound 33, 6-(4-methanesulfonamide-2-methoxyanilino)-1-methylbenzothieno[3,2-b]quinoline] | < 0.3 | 191 | 255 |  |  |  | response vs control in vivo at 400 mg/kg (P-388; dosage 400 mg/kg): 280%; cure (P-388; dosage 200 mg/kg): 1/6; cure (P-388; dosage 400 mg/kg): 1/6
COc1cc(NS(C)(=O)=O)ccc1Nc1c2ccccc2nc2c1[nH]c1ccc(N)cc12 [Compound 22, 2-amino-6-(4-methanesulfonamide-2-methoxyanilino)indolo[3,2-b]quinoline] | < 0.3 |  |  | 171 | 200 |  | 
COc1cc(NS(C)(=O)=O)ccc1Nc1c2ccccc2nc2c1[nH]c1ccc(F)cc12 [Compound 19, 2-fluoro-6-(4-methanesulfonamide-2-methoxyanilino)indolo[3,2-b]quinoline] | < 0.3 |  |  | 313 | 252 |  | cure (P-388; dosage 12.5 mg/kg): 3/6; cure (P-388; dosage 25 mg/kg): 2/6
COc1cc(N)ccc1Nc1c2c(nc3ccccc13)-c1ccccc1C2 [Compound 4] | < 0.3 |  |  | 134 | 168 | 210 | 
COc1cc(OC(C)=O)ccc1Nc1c2ccccc2nc2c1[nH]c1ccccc12 [Compound 21] | < 0.3 |  |  |  | 179 | 185 | cure (P-388; dosage 50 mg/kg): 1/6
COc1cc(NS(C)(=O)=O)ccc1Nc1c2ccccc2nc2c1[nH]c1ccc(NS(C)(=O)=O)cc12 [Compound 26, 2-methanesulfonamide-6-(4-methanesulfonamide-2-methoxyanilino)indolo[3,2-b]quinoline] | < 0.3 |  |  | 126 | 111 |  | 
COc1cc(NS(C)(=O)=O)ccc1Nc1c2ccccc2nc2c1[nH]c1ccc(NC(C)=O)cc12 [Compound 25] | < 0.3 |  |  | 135 | 174 |  | 
COc1cc(NCS(=O)O)ccc1Nc1c2c(nc3ccccc13)-c1ccccc1C2 [Compound 7] | < 0.3 | 108 | 111 |  |  | 111 | 
COc1cc(NS(C)(=O)=O)ccc1Nc1c2ccccc2nc2c1[nH]c1ccc(Cl)cc12 [Compound 12] | < 0.3 |  |  | 231 | 242 | 315 | cure (P-388; dosage 25 mg/kg): 1/6; cure (P-388; dosage 50 mg/kg): 1/6
COc1cc(NS(C)(=O)=O)ccc1Nc1c2ccccc2nc2c1[nH]c1ccc([N+](=O)[O-])cc12 [Compound 18, 6-(4-methanesulfonamide-2-methoxyanilino)-2-nitroindolo[3,2-b]quinoline] | < 0.3 |  |  |  |  |  | cure (P-388; dosage 12.5 mg/kg): 1/6
COc1cc(NS(C)(=O)=O)ccc1Nc1c2ccccc2nc2c1[nH]c1cc(C)ccc12 [Compound 17, 6-(4-methanesulfoneamide-2-methoxyanilino)-3-methylindolo[3,2-b]quinoline] | < 0.3 |  |  | 153 | 77 | 75 | 
COc1cc(NC(C)=O)ccc1Nc1c2ccccc2nc2c1[nH]c1ccccc12 [Compound 15] | < 0.3 | 240 | 76 |  |  | 263 | cure (P-388; dosage 100 mg/kg): 1/6
COc1cc(NS(C)(=O)=O)ccc1Nc1c2cccc(C)c2nc2c1oc1cccc(C)c12 [Compound 28, 6-(4-methanesulfonamide-2-methoxyanilino)-1,10-dimethylbenzofurano[3,2-b]quinoline] | < 0.3 | 269 |  |  |  | 204 | 
